This note sets out measurements from patent publication US20250034147A1, “MDM2 DEGRADERS AND USES THEREOF” (Kymera Therapeutics, Inc., priority 2021, published 2025).

The structures appear in SMILES notation.

The target of this test is T1, HiBiT-tagged MDM2 (Homo sapiens, UniProt Q00987).
T1 construct: expressed in transfected cells
As to the kind of experiment: MDM2 HiBit HEK293T degradation. The format is cell-based. The settings on record: HEK293T cells stably expressing C-terminally HiBiT-tagged MDM2; 4 h; read-out: MDM2 HiBit HEK293T degradation 4 h: Average external-Abs DC50. Here is the method:
HEK293T cells were grown overnight to 70-80% confluency in a 6-well plate in complete media (DMEM 10% FBS) in a 37° C. incubator with 5% CO2. Cells were transfected with 1 micrograms of C- or N-terminally HiBiT-tagged MDM2 constructs using Fugene 6 transfection reagent (Promega) as per manufacturer protocol. After overnight incubation at 37° C., growth media within the wells was replaced with selection media (DMEM+10% FBS+1 microgram/ml final concentration of Puromycin). Puromycin (selection antibiotic) concentrations required for complete cell kill were determined previously. Cells were monitored for the next 48h-96h to select for positively transfected cells. Surviving colonies were pooled and expanded in selection media. Expanded pools of HEK293T cells stably expressing C- and N-terminally HiBiT-tagged MDM2, were characterized using a MDM2 tool degrader and HaloPROTAC3 as positive control. HEK293T cells expressing C-terminally HiBiT-tagged MDM2 were subsequently used for assessment of degradation potencies for MDM2 degraders.
The letter codes for MDM2 degradation potency (DC50) include: A (<10 nM), B […], C (>100-1000 nM), and D (>1000 nM).
A general note: With HiBiT, luminescence reflects the tagged protein that the partner subunit can reach.

T1 sequence (Q00987 whole entry): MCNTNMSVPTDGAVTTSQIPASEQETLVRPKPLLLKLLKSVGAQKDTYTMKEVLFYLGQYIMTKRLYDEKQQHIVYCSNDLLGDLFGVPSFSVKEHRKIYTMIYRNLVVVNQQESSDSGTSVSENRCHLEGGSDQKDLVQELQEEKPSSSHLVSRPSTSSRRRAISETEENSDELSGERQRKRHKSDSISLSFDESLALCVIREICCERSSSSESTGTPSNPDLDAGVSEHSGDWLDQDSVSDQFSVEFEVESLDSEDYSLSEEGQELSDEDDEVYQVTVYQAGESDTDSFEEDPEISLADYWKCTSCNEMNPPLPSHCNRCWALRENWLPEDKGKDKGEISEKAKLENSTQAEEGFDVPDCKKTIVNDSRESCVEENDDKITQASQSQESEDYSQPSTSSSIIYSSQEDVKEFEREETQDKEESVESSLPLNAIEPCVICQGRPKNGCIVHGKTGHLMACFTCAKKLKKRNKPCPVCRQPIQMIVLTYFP

For orientation: DC50 means the concentration at which degradation of the target reaches its halfway point. Regarding `C[C@H]1CN(C(=O)[C@H]2CC[C@H](NC(=O)[C@@H]3NC4(CCCCC4)[C@@]4(C(=O)Nc5cc(Cl)ccc54)[C@H]3c3cccc(Cl)c3F)CC2)CCN1CCc1ccc2c(c1)n(C)c(=O)n2C1CCC(=O)NC1=O` (stereo partly drawn) [I-121], the DC50 is less than 10 nM.
Take `C[C@@H]1CN(C(=O)[C@H]2CC[C@H](NC(=O)[C@@H]3NC4(CCCCC4)[C@@]4(C(=O)Nc5cc(Cl)ccc54)[C@H]3c3cccc(Cl)c3F)CC2)CCN1CCc1ccc2c(c1)n(C)c(=O)n2C1CCC(=O)NC1=O` (stereo partly drawn) [I-122]: the 50% degradation concentration (DC50) is less than 10 nM.
The same measure for `Cn1c(=O)n(C2CCC(=O)NC2=O)c2ccc(C3CC4(C3)CN(C[C@H]3CC[C@H](NC(=O)[C@@H]5NC6(CCCCC6)[C@@]6(C(=O)Nc7cc(Cl)ccc76)[C@H]5c5cccc(Cl)c5F)CC3)C4)cc21` (stereo partly drawn) [I-123]: less than 10 nM; for `Cn1c(=O)n(C2CCC(=O)NC2=O)c2ccc(N3CCN(C(=O)CN4CCC(NC(=O)[C@@H]5NC6(CCCCC6)[C@@]6(C(=O)Nc7cc(Cl)ccc76)[C@H]5c5cccc(Cl)c5F)CC4)CC3)cc21` (stereo partly drawn) [I-125]: less than 10 nM.
Next, `CN(C(=O)[C@H]1CC[C@H](NC(=O)[C@@H]2NC3(CCCCC3)[C@@]3(C(=O)Nc4cc(Cl)ccc43)[C@H]2c2cccc(Cl)c2F)CC1)C1CCN(Cc2ccc3c(c2)n(C)c(=O)n3C2CCC(=O)NC2=O)CC1` (stereo partly drawn) [I-127]: less than 10 nM.
Next, `Cn1c(=O)n(C2CCC(=O)NC2=O)c2ccc([C@H]3CC[C@H](CN4CCC(NC(=O)[C@@H]5NC6(CCCCC6)[C@@]6(C(=O)Nc7cc(Cl)ccc76)[C@H]5c5cccc(Cl)c5F)CC4)CC3)cc21` (stereo partly drawn) [I-130]: less than 10 nM; `Cn1c(=O)n(C2CCC(=O)NC2=O)c2ccc(CC3(C(=O)O)CCN(C(=O)[C@H]4CC[C@H](NC(=O)[C@@H]5NC6(CCCCC6)[C@@]6(C(=O)Nc7cc(Cl)ccc76)[C@H]5c5cccc(Cl)c5F)CC4)CC3)cc21` (stereo partly drawn) [I-131]: 100 to 1000 nM.
For the molecule `Cn1c(=O)n(C2CCC(=O)NC2=O)c2ccc(CCCC3(CC(=O)O)CCN(C(=O)[C@H]4CC[C@H](NC(=O)[C@@H]5NC6(CCCCC6)[C@@]6(C(=O)Nc7cc(Cl)ccc76)[C@H]5c5cccc(Cl)c5F)CC4)CC3)cc21` (stereo partly drawn) [I-132], the DC50 was 100 to 1000 nM.
The same measure for `Cn1c(=O)n(C2CCC(=O)NC2=O)c2ccc(CCCN3CCN(C(=O)[C@@H]4CC[C@@H](NC(=O)[C@@H]5NC6(CCCCC6)[C@@]6(C(=O)Nc7cc(Cl)ccc76)[C@H]5c5cccc(Cl)c5F)CO4)CC3)cc21` (stereo partly drawn) [I-133]: less than 10 nM; for `Cn1c(=O)n(C2CCC(=O)NC2=O)c2ccc(CCC(=O)N3CCN(C[C@H]4CC[C@H](NC(=O)[C@@H]5NC6(CCCCC6)[C@@]6(C(=O)Nc7cc(Cl)ccc76)[C@H]5c5cccc(Cl)c5F)CC4)CC3)cc21` (stereo partly drawn) [I-134]: less than 10 nM; for `Cn1c(=O)n(C2CCC(=O)NC2=O)c2ccc(CN3CCN(C(=O)[C@H]4CC[C@H](NC(=O)[C@@H]5NC6(CCCCC6)[C@@]6(C(=O)Nc7cc(Cl)ccc76)[C@H]5c5cccc(Cl)c5F)CC4)C(C(=O)O)C3)cc21` (stereo partly drawn) [I-135]: 100 to 1000 nM.
The same measure for `Cn1c(=O)n(C2CCC(=O)NC2=O)c2ccc(CCCO[C@@H]3C[C@@H](C(=O)O)N(C(=O)[C@H]4CC[C@H](NC(=O)[C@@H]5NC6(CCCCC6)[C@@]6(C(=O)Nc7cc(Cl)ccc76)[C@H]5c5cccc(Cl)c5F)CC4)C3)cc21` (stereo partly drawn) [I-136]: 10 to 100 nM; for `Cn1c(=O)n(C2CCC(=O)NC2=O)c2ccc([C@H]3CC[C@H](N4CCC(NC(=O)[C@@H]5NC6(CCCCC6)[C@@]6(C(=O)Nc7cc(Cl)ccc76)[C@H]5c5cccc(Cl)c5F)CC4)CC3)cc21` (stereo partly drawn) [I-138]: less than 10 nM; for `Cn1c(=O)n(C2CCC(=O)NC2=O)c2ccc(N3CCC(N4CCC(NC(=O)[C@@H]5NC6(CCCCC6)[C@@]6(C(=O)Nc7cc(Cl)ccc76)[C@H]5c5cccc(Cl)c5F)CC4)CC3)cc21` (stereo partly drawn) [I-139]: less than 10 nM.
Next, `Cn1c(=O)n(C2CCC(=O)NC2=O)c2ccc(CCCO[C@@H]3C[C@H](C(=O)O)N(C(=O)[C@H]4CC[C@H](NC(=O)[C@@H]5NC6(CCCCC6)[C@@]6(C(=O)Nc7cc(Cl)ccc76)[C@H]5c5cccc(Cl)c5F)CC4)C3)cc21` (stereo partly drawn) [I-141]: 100 to 1000 nM.
